In ChEMBL document CHEMBL1131484, “Human growth hormone-releasing hormone hGHRH(1-29)-NH2: systematic structure-activity relationship studies” (J Med Chem, 1998):
Several values for one entry are separate records, joined by “and”; a condition that tells them apart may be missing. Equal values may be shown once.

Target: T1, Growth hormone-releasing hormone receptor (Rattus norvegicus) (UniProt Q02644)
T1 sequence (whole entry): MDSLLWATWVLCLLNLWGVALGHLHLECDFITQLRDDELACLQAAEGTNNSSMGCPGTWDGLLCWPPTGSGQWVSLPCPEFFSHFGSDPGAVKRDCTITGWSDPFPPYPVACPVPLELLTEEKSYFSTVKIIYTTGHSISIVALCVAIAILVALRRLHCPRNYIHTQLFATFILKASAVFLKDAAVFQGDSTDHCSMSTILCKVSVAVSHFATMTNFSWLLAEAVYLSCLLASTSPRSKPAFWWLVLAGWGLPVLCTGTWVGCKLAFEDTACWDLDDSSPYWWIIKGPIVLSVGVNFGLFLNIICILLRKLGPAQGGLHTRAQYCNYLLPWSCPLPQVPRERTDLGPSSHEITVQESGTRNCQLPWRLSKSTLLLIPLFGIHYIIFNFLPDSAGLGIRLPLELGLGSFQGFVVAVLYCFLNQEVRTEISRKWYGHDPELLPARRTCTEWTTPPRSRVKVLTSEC
Assay: Potency for growth hormone releasing hormone receptor (GHRFR) relative to human GHRH(1-40)OH- in the rat pituitary cell culture assay
Assay type: functional, cell-based
Details: Pituitary gland cell

Molecule	Relative potency
CC[C@H](C)[C@H](NC(=O)[C@H](C)NC(=O)[C@H](CC(=O)O)NC(=O)[C@H](C)NC(=O)[C@@H](N)Cc1ccc(O)cc1)C(=O)N[C@@H](Cc1ccccc1)C(=O)N[C@H](C(=O)N[C@@H](CC(N)=O)C(=O)N[C@@H](CO)C(=O)N[C@@H](Cc1ccc(O)cc1)C(=O)N[C@@H](CCCN=C(N)N)C(=O)N[C@@H](CCCCN)C(=O)N[C@H](C(=O)N[C@@H](CC(C)C)C(=O)NCC(=O)N[C@@H](CCC(N)=O)C(=O)N[C@@H](CC(C)C)C(=O)N[C@@H](CO)C(=O)N[C@@H](C)C(=O)N[C@@H](CCCN=C(N)N)C(=O)N[C@@H](CCCCN)C(=O)N[C@@H](CC(C)C)C(=O)N[C@@H](CC(C)C)C(=O)N[C@@H](CCC(N)=O)C(=O)N[C@@H](CC(=O)O)C(=O)N[C@H](C(=O)N[C@@H](CCSC)C(=O)N[C@@H](C)C(=O)N[C@@H](CCCN=C(N)N)C(N)=O)[C@@H](C)CC)C(C)C)[C@@H](C)O (stereo in doubt; 27)	1.9
CC[C@H](C)[C@H](NC(=O)[C@H](C)NC(=O)[C@H](CC(=O)O)NC(=O)[C@H](C)NC(=O)[C@@H](N)Cc1ccc(O)cc1)C(=O)N[C@@H](Cc1ccccc1)C(=O)N[C@H](C(=O)N[C@@H](CC(N)=O)C(=O)N[C@@H](CO)C(=O)N[C@@H](Cc1ccc(O)cc1)C(=O)N[C@@H](CCCN=C(N)N)C(=O)N[C@@H](CCCCN)C(=O)N[C@H](C(=O)N[C@@H](CC(C)C)C(=O)NCC(=O)N[C@@H](CCC(N)=O)C(=O)N[C@@H](CC(C)C)C(=O)N[C@@H](CO)C(=O)N[C@@H](C)C(=O)N[C@@H](CCCN=C(N)N)C(=O)N[C@@H](CCCCN)C(=O)N[C@@H](CC(C)C)C(=O)N[C@@H](CC(C)C)C(=O)N[C@@H](CCC(N)=O)C(=O)N[C@@H](CC(=O)O)C(=O)N[C@H](C(=O)N[C@@H](CCSC)C(=O)N[C@@H](C)C(=O)N[C@@H](CCCN=C(N)N)C(N)=O)[C@@H](C)CC)C(C)C)[C@@H](C)O (stereo in doubt; 39)	2.2
H-AADAIFTNSYRKVLGQLSARKLLQDIMSR-NH2	0.01
H-YAAAIFTNSYRKVLGQLSARKLLQDIMSR-NH2	0.05
H-YADAAFTNSYRKVLGQLSARKLLQDIMSR-NH2	0.1
H-YADAIATNSYRKVLGQLSARKLLQDIMSR-NH2	0
H-YADAIFANSYRKVLGQLSARKLLQDIMSR-NH2	0.29
H-YADAIFTASYRKVLGQLSARKLLQDIMSR-NH2	2.1
H-YADAIFTNAYRKVLGQLSARKLLQDIMSR-NH2	2.6
H-YADAIFTNSARKVLGQLSARKLLQDIMSR-NH2	0.01
H-YADAIFTNSYAKVLGQLSARKLLQDIMSR-NH2	0.01
H-YADAIFTNSYRAVLGQLSARKLLQDIMSR-NH2	0.16
H-YADAIFTNSYRKALGQLSARKLLQDIMSR-NH2	0.06
H-YADAIFTNSYRKVAGQLSARKLLQDIMSR-NH2	0.01
H-YADAIFTNSYRKVLAQLSARKLLQDIMSR-NH2	5.6
H-YADAIFTNSYRKVLGALSARKLLQDIMSR-NH2	1.5
H-YADAIFTNSYRKVLGQASARKLLQDIMSR-NH2	0.39
H-YADAIFTNSYRKVLGQLAARKLLQDIMSR-NH2	1.6 and 1.4
H-YADAIFTNSYRKVLGQLSAAKLLQDIMSR-NH2	0.3
H-YADAIFTNSYRKVLGQLSARALLQDIMSR-NH2	0.27
H-YADAIFTNSYRKVLGQLSARKALQDIMSR-NH2	4.7
H-YADAIFTNSYRKVLGQLSARKLAQDIMSR-NH2	0.07
H-YADAIFTNSYRKVLGQLSARKLLADIMSR-NH2	1.3
H-YADAIFTNSYRKVLGQLSARKLLQAIMSR-NH2	1.3
H-YADAIFTNSYRKVLGQLSARKLLQDAMSR-NH2	1.1
H-YADAIFTNSYRKVLGQLSARKLLQDIASR-NH2	0.32
H-YADAIFTNSYRKVLGQLSARKLLQDIMSA-NH2	0.59
